Measured values reported in PubChem BioAssay (NCI).
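Five compound concentrations were applied to cells in 96-well plates for 48 hours; endpoints were derived by simple linear interpolation of the resulting dose-response curve. TGI: concentration producing complete growth inhibition.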 Where a SMILES comes first, the peptide text is derived from it. [ ]: non-standard residue; d: D form. The star is where a group is joined. ξ: configuration not given here. NMeN = CN[C@@H](CC(N)=O)C(=O)O; NMeV = CN[C@H](C(=O)O)C(C)C; ξNMeV = CNC(C(=O)O)C(C)C; Boc = CC(C)(C)OC(=O)*; ξNMeA = CNC(C)C(=O)O

Legend:
Assay in all cases: growth of human tumour cells (NCI), 48 h
[1] = system: DLD-1 colon
[2] = system: DMS 273 small cell lung
[3] = system: KM20L2 colon
[4] = system: M19-MEL melanoma
[5] = system: MDA-N
[6] = system: PC-3 prostate
[7] = system: SNB-78 CNS
[8] = system: T-47D breast
[9] = system: XF 498 CNS

SMILES | TGI [1] [µM] | TGI [2] [µM] | TGI [3] [µM] | TGI [4] [µM] | TGI [5] [µM] | TGI [6] [µM] | TGI [7] [µM] | TGI [8] [µM] | TGI [9] [µM]
COC(=O)C(C)N(C)C(=O)[C@H](CC(N)=O)N(C)C(=O)[C@@H]1CCCN1C(=O)[C@H](C(C)C)N(C)C(=O)C(C(C)C)N(C)C(=O)[C@@H](NC(=O)OC(C)(C)C)C(C)C (stereo not given in full) (Boc-V[ξNMeV][NMeV]P[NMeN][ξNMeA]-OMe) | > 100 | > 100 | > 100 | > 100 | > 50 | 50 | > 100 | > 50 | > 100
COc1ccc(C(=O)OC2C=COC(C)C2OC(=O)c2ccc(OC)cc2)cc1 (stereo not given) | > 52.8 | 73.6 | > 77.1 | > 100 |  |  | > 100 |  | > 61.8
O=c1[nH]c2c3ccccc3ccc2c2cc3c(cc12)OCO3 | > 100 | > 100 | > 100 | > 100 |  |  | > 100 |  | > 100
COC(=O)C12CC3CC(C1)CC(C(=O)OC)(C3)C2 | > 100 | > 100 | > 100 | > 100 |  |  | > 100 |  | > 100
CCc1nc(N)nc(C(=O)NCCNC(=O)c2nc(N)nc(CC)c2C)c1C | > 100 | > 100 | > 100 | > 100 |  |  | > 100 |  | > 100
CSc1nc(NC(=O)O)c(N(C(C)=O)C(=O)O)c(=O)n1C | > 100 | > 100 | > 100 | > 100 |  |  | > 100 |  | > 100
COc1ccc2cc3[n+](cc2c1OC)CCc1cc(O)c(O)cc1-3 | > 100 | > 100 | > 100 | > 100 |  |  | > 100 |  | > 100
COc1cc(C(=O)C/C(CCC(=O)Nc2ccc(Cl)cc2C)=N/NC(=O)C(N)=O)ccc1O | > 100 | > 100 | > 100 | > 100 |  |  | > 100 |  | > 100
COC(=O)C12C3C4C5C3(C#N)C1C5(C(=O)OC)C42C(=O)N(C(C)C)C(C)C (stereo not given) | > 70.6 | > 59.3 | > 100 | > 100 |  |  | > 100 |  | > 100
CCCCCCCCCCC(O)C1CCC(C(O)CCC(O)C2CCC(CCCCCCC[C@H](O)CC3=C[C@@H](C)OC3=O)O2)O1 (stereo not given in full) | > 100 | > 100 | > 100 | > 100 |  |  | > 100 |  | > 100
COC(=O)C(=O)C(C#N)c1ccc(CC#N)cc1 (stereo not given) | > 100 | > 100 | > 100 | > 100 |  |  | > 100 |  | > 100
COc1cc(C=Nc2ccc(C(C)C)cc2)cc(OC)c1OC | > 100 | > 100 | > 100 | > 100 |  |  | > 100 |  | > 100
